Data: publication PMC4916434, “Evaluation of the inhibition potential of plumbagin against cytochrome P450 using LC-MS/MS and cocktail approach” (Scientific Reports, 2016)

What was measured:
CYP2E1 = target: T1, CYP2E1 (Homo sapiens, UniProt P05181); test: CYP2E1 inhibition (chlorzoxazone 6-hydroxylation) in pooled human liver microsomes, cocktail LC-MS/MS; type: in vitro ADME
T1 construct: consisting of pooled HLMs (0.5 mg/ml) or RLMs (1 mg/ml) and an NADPH-regenerating system; tissue Corning Gentest Corporation; host or cells: pooled human liver microsomes (n = 20)
Method: Microsomal incubation was carried out at 37 °C in a mixture of 200 μl in 0.05 M Tris/HCl buffer (pH 7.4) consisting of pooled HLMs (0.5 mg/ml) or RLMs (1 mg/ml) and an NADPH-regenerating system including MgCl2 (5 mM), G6P (10 mM), G6PDH (0.4 U/ml) and NADP (1 mM). Substrates were added into the incubation mixture and obtained the final concentrations (10 μM phenacetin for CYP1A2, 20 μM bupropion for CYP2B1/6, 20 μM tolbutamide for CYP2C9/11, 5 μM dextromethorphan for CYP2D1/6, 20 μM chlorzoxazone for CYP2E1 and 10 μM midazolam for CYP3A2/4), which were close to Km respectively. The proportion of organic solvent was not higher than 1% (v/v) in the incubation mixture. After pre-incubation for 5 min, the reaction was initiated by addition of NADP. Incubations were performed for 20 min, stopped by adding 200 μl ice-cold acetonitrile. And then 20 μl internal standard solution was added (3-acetamidophenol 2 μg/ml, chlorpropamide 2 μg/ml and mebendazole 2 μg/ml). The solution was mixed thoroughly for 3 min and centrifuged for 10 min at 16,000 × g at 4 °C. The supernatant (60 μl) was transferred to autosampler vials, and 2 μl was injected into LC-MS/MS system.
The IC50 (concentration of inhibitor to cause 50% inhibition of original enzyme activity) values were determined with the same incubation condition above. The specific concentrations of plumbagin were ranged from 0.1 μM to 50 μM. The IC50 values were calculated by plotting relative activities over the logarithm of plumbagin concentrations using GraphPad Prism 5.0 (GraphPad software Inc., CA, USA).
Cocktail probe substrates were then added and incubated for 20 min. Reactions were stopped with 200 μl ice-cold acetonitrile. The samples were treated according to the microsomal incubation method and then injected into LC-MS/MS for analysis.
Kinetic studies were performed for determining the types of inhibition on CYP by plumbagin. Pooled HLMs (0.5 mg/ml) or RLMs (1 mg/ml) with plumbagin (1 μM, 2 μM, 5 μM and 10 μM) were incubated in 0.05 M Tris/HCl buffer (pH 7.4) for 20 min at 37 °C. A series of concentrations for cocktail probe substrates were used: 2.5–20 μM phenacetin for CYP1A2; 5–40 μM bupropion for CYP2B1/6; 5–40 μM tolbutamide for CYP2C9/11; 1.25–10 μM dextromethorphan for CYP2D1/6; 5–40 μM chlorzoxazone for CYP2E1; 2.5–80 μM midazolam for CYP3A2; and 0.625–5 μM midazolam for CYP3A4. Enzyme kinetics as well as statistical analysis were performed using GraphPad Prism 5.0.
All data were presented as mean ± SD. The IC50 values were fitted by non-linear regression analysis using GraphPad Prism 5.0. The kinetic parameters were obtained by fitting velocity data to kinetic models (Michaelis-Menten) using GraphPad Prism 5.0. The Lineweaver-Burk Plot (the reciprocal of reaction velocities versus the reciprocal of substrates concentrations) was used to determine the quality of fit to a specific inhibition model. The inhibition constant (Ki) was obtained by a secondary plot using the slopes of the primary Lineweaver-Burk Plot (Km/Vmax versus inhibitor concentrations). αKi was obtained from a secondary plot using the y-intercepts of the Lineweaver-Burk plot (1/Vmax versus inhibitor concentrations). All results were analyzed in quadruplicate. One-way analysis of variance was used to estimate the significance of differences. There was statistical significance between control and test groups if p < 0.05.

[1] = rat, in vivo, po, 100 mg/kg; cited from earlier work

T1 sequence (P05181 whole entry): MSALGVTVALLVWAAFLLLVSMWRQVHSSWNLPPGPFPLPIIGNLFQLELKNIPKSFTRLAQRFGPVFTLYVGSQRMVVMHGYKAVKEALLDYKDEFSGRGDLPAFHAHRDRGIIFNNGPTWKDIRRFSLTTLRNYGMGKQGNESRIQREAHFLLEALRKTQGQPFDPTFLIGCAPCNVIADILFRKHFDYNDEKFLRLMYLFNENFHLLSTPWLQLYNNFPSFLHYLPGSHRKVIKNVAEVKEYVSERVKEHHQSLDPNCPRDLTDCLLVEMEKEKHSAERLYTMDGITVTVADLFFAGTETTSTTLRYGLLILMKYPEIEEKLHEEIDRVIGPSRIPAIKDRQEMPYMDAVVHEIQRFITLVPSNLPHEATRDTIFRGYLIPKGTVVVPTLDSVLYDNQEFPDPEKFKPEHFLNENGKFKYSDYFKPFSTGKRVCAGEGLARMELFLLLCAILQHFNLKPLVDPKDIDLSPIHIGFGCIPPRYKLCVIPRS

CC1=CC(=O)c2c(O)cccc2C1=O [plumbagin, 5-hydroxy-2-methyl-1,4-naphthoquinone]
IC50 (CYP2E1): 6.54 µM | Ki (CYP2E1): 0.65 µM | Type of inhibition (CYP2E1): mixed-type | αKi (CYP2E1; HLMs, secondary plot of y-intercepts, chlorzoxazone 5-40 μM): 2.64 µM | α (CYP2E1; human, 20 min, pH 7.4): 0.25 | Cmax [1]: 1860 nM | area under the curve (AUC) in the plasma [1]: 271.9 µg·min/mL | half-life (t1/2) in the plasma [1]: 17.13 h | peak concentration (Cmax) in the plasma [1]: 350 ng/mL
